Measured values from the kinase profiling compilation of Christmann-Franck et al. (2016).
One block for each compound: values may come before it.

What was measured:
Assay in all cases: radiometric filter-binding kinase assay
[1] = tested on: AKT1 (human), P31749 [S473D]
CHEK2 (human) = CHEK2 (human) (UniProt O96017)
CSNK1D (human) = CSNK1D (human) (UniProt P48730)
CaMK1 (human) = CaMK1 (human) (UniProt Q14012)
DYRK1A (human) = DYRK1A (human) (UniProt Q13627)
DYRK3 (human) = DYRK3 (human) (UniProt O43781)
EPHB2 (human) = EPHB2 (human) (UniProt P29323)
IKBKB (human) = IKBKB (human) (UniProt O14920)
IKBKE (human) = IKBKE (human) (UniProt Q14164)
IRAK4 (human) = IRAK4 (human) (UniProt Q9NWZ3)
JAK2 JH1 JH2 (human) = JAK2 JH1 JH2 (human) (UniProt O60674)
MAP2K1 (human) = MAP2K1 (human) (UniProt Q02750)
MAP3K11 (human) = MAP3K11 (human) (UniProt Q16584)
MAPK14 (human) = MAPK14 (human) (UniProt Q16539)
MAPK3 (human) = MAPK3 (human) (UniProt P27361)
MAPK8 (human) = MAPK8 (human) (UniProt P45983)
MAPK9 (human) = MAPK9 (human) (UniProt P45984)
MAPKAPK2 (human) = MAPKAPK2 (human) (UniProt P49137)
MARK1 (human) = MARK1 (human) (UniProt Q9P0L2)
MARK2 (human) = MARK2 (human) (UniProt Q7KZI7)
MARK3 (human) = MARK3 (human) (UniProt P27448)
MKNK1 (human) = MKNK1 (human) (UniProt Q9BUB5)
MKNK2 (human) = MKNK2 (human) (UniProt Q9HBH9)
NEK2 (human) = NEK2 (human) (UniProt P51955)
NEK6 (human) = NEK6 (human) (UniProt Q9HC98)
NTRK1 (human) = NTRK1 (human) (UniProt P04629)
NUAK1 (human) = NUAK1 (human) (UniProt O60285)
PAK4 (human) = PAK4 (human) (UniProt O96013)
PIM1 (human) = PIM1 (human) (UniProt P11309)
RPS6KA1 KD1 KD2 (human) = RPS6KA1 KD1 KD2 (human) (UniProt Q15418)
[2] = tested on: RPS6KB1 (human), P23443 [T412E]
[3] = molecular target: STK11 CAB39 STRADA (human) (UniProt Q9Y376+Q7RTN6+Q15831)
STK3 (human) = STK3 (human) (UniProt Q13188)
TBK1 (human) = TBK1 (human) (UniProt Q9UHD2)
TTK (human) = TTK (human) (UniProt P33981)

PAK4 (human), sequence (O96013 whole entry, looked up): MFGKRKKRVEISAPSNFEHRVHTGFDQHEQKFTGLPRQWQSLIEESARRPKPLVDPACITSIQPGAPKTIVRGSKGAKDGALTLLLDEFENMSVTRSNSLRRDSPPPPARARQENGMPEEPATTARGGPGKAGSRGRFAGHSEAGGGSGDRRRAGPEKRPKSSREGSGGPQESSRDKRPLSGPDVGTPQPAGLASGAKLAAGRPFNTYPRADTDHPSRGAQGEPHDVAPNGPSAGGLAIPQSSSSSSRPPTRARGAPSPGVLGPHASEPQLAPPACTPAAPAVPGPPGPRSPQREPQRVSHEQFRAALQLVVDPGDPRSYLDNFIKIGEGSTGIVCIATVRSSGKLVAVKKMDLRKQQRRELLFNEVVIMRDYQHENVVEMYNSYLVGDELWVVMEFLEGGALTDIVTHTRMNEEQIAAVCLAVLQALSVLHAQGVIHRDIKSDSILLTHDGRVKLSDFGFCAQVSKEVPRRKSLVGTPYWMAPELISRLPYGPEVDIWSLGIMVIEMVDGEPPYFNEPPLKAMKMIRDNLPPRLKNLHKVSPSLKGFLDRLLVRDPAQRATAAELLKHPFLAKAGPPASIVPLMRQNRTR
EPHB2 (human), sequence (P29323 whole entry, looked up): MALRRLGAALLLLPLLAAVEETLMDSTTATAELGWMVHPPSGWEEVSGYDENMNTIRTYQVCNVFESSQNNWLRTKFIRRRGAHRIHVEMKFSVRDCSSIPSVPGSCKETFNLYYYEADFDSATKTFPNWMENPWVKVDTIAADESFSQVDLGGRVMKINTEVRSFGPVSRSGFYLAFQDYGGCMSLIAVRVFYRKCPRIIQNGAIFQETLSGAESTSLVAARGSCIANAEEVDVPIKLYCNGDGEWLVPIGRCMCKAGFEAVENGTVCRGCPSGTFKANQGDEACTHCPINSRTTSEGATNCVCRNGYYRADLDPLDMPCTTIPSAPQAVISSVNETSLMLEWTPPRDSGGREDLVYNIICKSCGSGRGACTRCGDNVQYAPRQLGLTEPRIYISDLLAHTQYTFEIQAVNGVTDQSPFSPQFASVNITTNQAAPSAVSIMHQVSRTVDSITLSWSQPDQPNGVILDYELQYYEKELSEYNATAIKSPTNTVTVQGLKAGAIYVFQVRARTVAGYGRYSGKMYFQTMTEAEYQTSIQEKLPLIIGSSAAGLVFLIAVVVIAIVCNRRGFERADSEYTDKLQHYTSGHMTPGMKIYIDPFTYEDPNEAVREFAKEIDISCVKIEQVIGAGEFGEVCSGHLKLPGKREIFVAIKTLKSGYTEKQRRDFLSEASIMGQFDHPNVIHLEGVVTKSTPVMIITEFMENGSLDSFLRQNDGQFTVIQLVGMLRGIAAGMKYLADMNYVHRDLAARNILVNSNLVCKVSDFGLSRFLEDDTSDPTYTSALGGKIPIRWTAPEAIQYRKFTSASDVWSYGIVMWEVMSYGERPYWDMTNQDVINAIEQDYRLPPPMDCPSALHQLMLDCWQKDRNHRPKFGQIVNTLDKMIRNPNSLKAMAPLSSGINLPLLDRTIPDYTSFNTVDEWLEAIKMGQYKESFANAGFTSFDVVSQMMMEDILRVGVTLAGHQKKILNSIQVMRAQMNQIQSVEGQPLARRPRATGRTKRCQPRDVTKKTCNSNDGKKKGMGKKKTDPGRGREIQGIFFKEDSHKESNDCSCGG
NEK2 (human), sequence (P51955 whole entry, looked up): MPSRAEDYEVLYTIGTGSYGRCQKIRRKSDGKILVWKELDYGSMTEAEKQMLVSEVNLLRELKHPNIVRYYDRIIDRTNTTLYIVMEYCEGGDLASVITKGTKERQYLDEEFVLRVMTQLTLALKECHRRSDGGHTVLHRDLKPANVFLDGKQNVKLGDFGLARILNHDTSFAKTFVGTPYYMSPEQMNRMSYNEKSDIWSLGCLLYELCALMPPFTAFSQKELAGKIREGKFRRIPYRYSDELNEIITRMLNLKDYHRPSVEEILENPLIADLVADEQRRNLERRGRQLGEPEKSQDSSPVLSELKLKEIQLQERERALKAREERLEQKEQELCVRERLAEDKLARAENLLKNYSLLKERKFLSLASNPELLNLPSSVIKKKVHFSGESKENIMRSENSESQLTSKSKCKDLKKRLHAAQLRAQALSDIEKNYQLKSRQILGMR
IKBKE (human), sequence (Q14164 whole entry, looked up): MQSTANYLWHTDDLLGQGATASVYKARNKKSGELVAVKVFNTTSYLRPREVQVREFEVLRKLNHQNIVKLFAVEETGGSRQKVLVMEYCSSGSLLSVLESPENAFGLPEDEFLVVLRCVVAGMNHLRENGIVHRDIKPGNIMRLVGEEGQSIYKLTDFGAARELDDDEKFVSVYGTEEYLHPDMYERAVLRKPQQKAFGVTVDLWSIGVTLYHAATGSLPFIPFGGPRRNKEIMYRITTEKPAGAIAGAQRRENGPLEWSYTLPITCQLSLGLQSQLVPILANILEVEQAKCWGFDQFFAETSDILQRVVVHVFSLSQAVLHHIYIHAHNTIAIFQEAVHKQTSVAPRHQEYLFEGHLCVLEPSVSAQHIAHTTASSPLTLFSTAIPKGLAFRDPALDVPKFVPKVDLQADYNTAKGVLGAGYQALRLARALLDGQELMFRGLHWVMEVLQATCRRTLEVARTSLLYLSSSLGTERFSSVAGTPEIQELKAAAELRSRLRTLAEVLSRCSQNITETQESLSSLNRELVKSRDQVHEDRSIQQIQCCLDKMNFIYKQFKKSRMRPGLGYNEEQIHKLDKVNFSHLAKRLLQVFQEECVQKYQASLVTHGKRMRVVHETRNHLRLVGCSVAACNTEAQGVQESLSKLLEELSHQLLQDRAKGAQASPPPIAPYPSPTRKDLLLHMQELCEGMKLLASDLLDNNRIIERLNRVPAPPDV
MAPKAPK2 (human), sequence (P49137 whole entry, looked up): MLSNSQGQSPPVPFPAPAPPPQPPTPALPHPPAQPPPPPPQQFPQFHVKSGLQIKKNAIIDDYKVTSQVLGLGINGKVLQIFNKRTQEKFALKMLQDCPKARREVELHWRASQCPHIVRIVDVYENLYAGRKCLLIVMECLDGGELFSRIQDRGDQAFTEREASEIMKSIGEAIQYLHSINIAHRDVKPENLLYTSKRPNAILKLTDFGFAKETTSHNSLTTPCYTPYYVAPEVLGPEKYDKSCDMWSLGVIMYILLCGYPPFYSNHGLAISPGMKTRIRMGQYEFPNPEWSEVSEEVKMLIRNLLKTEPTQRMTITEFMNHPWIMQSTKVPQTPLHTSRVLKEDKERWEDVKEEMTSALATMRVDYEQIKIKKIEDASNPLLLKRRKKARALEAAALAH
MKNK2 (human), sequence (Q9HBH9 whole entry, looked up): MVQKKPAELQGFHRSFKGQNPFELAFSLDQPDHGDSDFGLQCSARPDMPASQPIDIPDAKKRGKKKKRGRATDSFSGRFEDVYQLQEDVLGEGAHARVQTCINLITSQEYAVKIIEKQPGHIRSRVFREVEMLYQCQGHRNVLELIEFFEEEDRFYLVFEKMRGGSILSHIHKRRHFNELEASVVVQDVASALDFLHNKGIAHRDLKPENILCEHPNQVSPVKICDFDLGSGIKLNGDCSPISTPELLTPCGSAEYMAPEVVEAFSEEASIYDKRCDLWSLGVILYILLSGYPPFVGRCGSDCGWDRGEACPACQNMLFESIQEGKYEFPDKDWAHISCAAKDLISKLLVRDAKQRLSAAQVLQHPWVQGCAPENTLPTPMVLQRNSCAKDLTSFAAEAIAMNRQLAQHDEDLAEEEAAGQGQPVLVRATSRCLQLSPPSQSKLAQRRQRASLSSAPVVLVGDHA
MAPK8 (human), sequence (P45983 whole entry, looked up): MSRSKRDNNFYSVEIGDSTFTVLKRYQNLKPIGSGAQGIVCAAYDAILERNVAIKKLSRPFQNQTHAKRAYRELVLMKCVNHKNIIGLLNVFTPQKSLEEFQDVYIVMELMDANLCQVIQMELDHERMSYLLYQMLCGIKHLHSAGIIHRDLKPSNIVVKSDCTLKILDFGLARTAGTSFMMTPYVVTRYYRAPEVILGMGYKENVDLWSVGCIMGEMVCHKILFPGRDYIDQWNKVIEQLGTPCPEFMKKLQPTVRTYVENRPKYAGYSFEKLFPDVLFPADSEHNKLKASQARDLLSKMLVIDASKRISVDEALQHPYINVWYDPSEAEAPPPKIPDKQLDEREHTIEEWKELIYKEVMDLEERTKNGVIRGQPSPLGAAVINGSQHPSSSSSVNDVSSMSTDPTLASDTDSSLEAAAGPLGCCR
CSNK1D (human), sequence (P48730 whole entry, looked up): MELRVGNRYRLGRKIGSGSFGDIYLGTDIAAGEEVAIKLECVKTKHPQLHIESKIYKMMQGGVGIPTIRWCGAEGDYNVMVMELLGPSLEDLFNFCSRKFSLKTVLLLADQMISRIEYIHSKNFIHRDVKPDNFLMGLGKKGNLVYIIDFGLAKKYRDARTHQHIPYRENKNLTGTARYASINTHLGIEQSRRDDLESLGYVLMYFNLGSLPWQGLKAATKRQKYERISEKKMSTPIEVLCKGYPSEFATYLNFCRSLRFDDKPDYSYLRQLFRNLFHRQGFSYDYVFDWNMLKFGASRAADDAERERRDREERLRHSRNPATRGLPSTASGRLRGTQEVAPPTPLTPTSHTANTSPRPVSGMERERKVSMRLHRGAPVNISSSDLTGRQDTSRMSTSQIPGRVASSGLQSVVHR
STK3 (human), sequence (Q13188 whole entry, looked up): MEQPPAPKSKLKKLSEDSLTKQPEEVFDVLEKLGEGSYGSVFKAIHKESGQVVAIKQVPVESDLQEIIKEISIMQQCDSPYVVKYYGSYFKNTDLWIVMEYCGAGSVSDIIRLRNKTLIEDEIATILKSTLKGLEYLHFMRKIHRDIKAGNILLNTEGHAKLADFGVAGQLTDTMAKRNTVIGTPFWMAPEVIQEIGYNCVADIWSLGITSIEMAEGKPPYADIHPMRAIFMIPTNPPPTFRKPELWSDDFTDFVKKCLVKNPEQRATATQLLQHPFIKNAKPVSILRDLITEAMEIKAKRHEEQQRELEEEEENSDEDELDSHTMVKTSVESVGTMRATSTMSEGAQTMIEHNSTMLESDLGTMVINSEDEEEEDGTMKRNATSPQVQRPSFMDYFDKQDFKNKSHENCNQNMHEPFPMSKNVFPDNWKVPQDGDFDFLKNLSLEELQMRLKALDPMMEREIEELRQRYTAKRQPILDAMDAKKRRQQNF

residual activity ([1]; compound 10.0 µM): 99%
residual activity (CHEK2 (human); compound 1.0 µM): 104%
residual activity (CHEK2 (human); compound 10.0 µM): 93%
residual activity (CSNK1D (human); compound 1.0 µM): 96%
residual activity (CSNK1D (human); compound 10.0 µM): 97%
residual activity (CaMK1 (human); compound 1.0 µM): 106%
residual activity (CaMK1 (human); compound 10.0 µM): 84%
residual activity (DYRK1A (human); compound 1.0 µM): 91%
residual activity (DYRK1A (human); compound 10.0 µM): 85%
residual activity (DYRK3 (human); compound 1.0 µM): 107%
residual activity (DYRK3 (human); compound 10.0 µM): 83%
residual activity (EPHB2 (human); compound 10.0 µM): 77%
residual activity (IKBKB (human); compound 1.0 µM): 78%
residual activity (IKBKB (human); compound 10.0 µM): 89%
residual activity (IKBKE (human); compound 1.0 µM): 102%
residual activity (IKBKE (human); compound 10.0 µM): 103%
residual activity (IRAK4 (human); compound 1.0 µM): 77%
residual activity (IRAK4 (human); compound 10.0 µM): 91%
residual activity (JAK2 JH1 JH2 (human); compound 1.0 µM): 5%
residual activity (JAK2 JH1 JH2 (human); compound 10.0 µM): 8%
residual activity (MAP2K1 (human); compound 1.0 µM): 36%
residual activity (MAP2K1 (human); compound 10.0 µM): 3%
residual activity (MAP3K11 (human); compound 1.0 µM): 83%
residual activity (MAP3K11 (human); compound 10.0 µM): 89%
residual activity (MAPK14 (human); compound 1.0 µM): 102%
residual activity (MAPK14 (human); compound 10.0 µM): 97%
residual activity (MAPK3 (human); compound 1.0 µM): 100%
residual activity (MAPK3 (human); compound 10.0 µM): 101%
residual activity (MAPK8 (human); compound 1.0 µM): 87%
residual activity (MAPK8 (human); compound 10.0 µM): 93%
residual activity (MAPK9 (human); compound 1.0 µM): 88%
residual activity (MAPK9 (human); compound 10.0 µM): 92%
residual activity (MAPKAPK2 (human); compound 1.0 µM): 104%
residual activity (MAPKAPK2 (human); compound 10.0 µM): 102%
residual activity (MARK1 (human); compound 1.0 µM): 77%
residual activity (MARK1 (human); compound 10.0 µM): 71%
residual activity (MARK2 (human); compound 1.0 µM): 101%
residual activity (MARK2 (human); compound 10.0 µM): 101%
residual activity (MARK3 (human); compound 1.0 µM): 73%
residual activity (MARK3 (human); compound 10.0 µM): 88%
residual activity (MKNK1 (human); compound 1.0 µM): 106%
residual activity (MKNK1 (human); compound 10.0 µM): 95%
residual activity (MKNK2 (human); compound 1.0 µM): 89%
residual activity (MKNK2 (human); compound 10.0 µM): 90%
residual activity (NEK2 (human); compound 1.0 µM): 98%
residual activity (NEK2 (human); compound 10.0 µM): 94%
residual activity (NEK6 (human); compound 1.0 µM): 101%
residual activity (NEK6 (human); compound 10.0 µM): 103%
residual activity (NTRK1 (human); compound 1.0 µM): 79%
residual activity (NTRK1 (human); compound 10.0 µM): 78%
residual activity (NUAK1 (human); compound 1.0 µM): 108%
residual activity (NUAK1 (human); compound 10.0 µM): 95%
residual activity (PAK4 (human); compound 1.0 µM): 98%
residual activity (PAK4 (human); compound 10.0 µM): 77%
residual activity (PIM1 (human); compound 1.0 µM): 102%
residual activity (PIM1 (human); compound 10.0 µM): 71%
residual activity (RPS6KA1 KD1 KD2 (human); compound 1.0 µM): 122%
residual activity (RPS6KA1 KD1 KD2 (human); compound 10.0 µM): 98%
residual activity ([2]; compound 1.0 µM): 94%
residual activity ([2]; compound 10.0 µM): 80%
residual activity ([3]; compound 1.0 µM): 80%
residual activity ([3]; compound 10.0 µM): 77%
residual activity (STK3 (human); compound 1.0 µM): 71%
residual activity (STK3 (human); compound 10.0 µM): 75%
residual activity (TBK1 (human); compound 1.0 µM): 111%
residual activity (TBK1 (human); compound 10.0 µM): 99%
residual activity (TTK (human); compound 1.0 µM): 105%
residual activity (TTK (human); compound 10.0 µM): 98%
SMILES: O=C(NOCC(O)CO)c1ccc(F)c(F)c1Nc1ccc(I)cc1Cl (configuration not stated)

residual activity ([1]; compound 0.1 µM): 92%
residual activity ([1]; compound 1.0 µM): 104%
residual activity (CHEK2 (human); compound 0.1 µM): 89%
residual activity (CHEK2 (human); compound 1.0 µM): 73%
residual activity (CSNK1D (human); compound 0.1 µM): 63%
residual activity (CSNK1D (human); compound 1.0 µM): 33%
residual activity (CaMK1 (human); compound 0.1 µM): 87%
residual activity (CaMK1 (human); compound 1.0 µM): 92%
residual activity (DYRK1A (human); compound 0.1 µM): 97%
residual activity (DYRK1A (human); compound 1.0 µM): 85%
residual activity (DYRK3 (human); compound 0.1 µM): 81%
residual activity (DYRK3 (human); compound 1.0 µM): 79%
residual activity (EPHB2 (human); compound 0.1 µM): 101%
residual activity (EPHB2 (human); compound 1.0 µM): 103%
residual activity (IKBKB (human); compound 0.1 µM): 76%
residual activity (IKBKB (human); compound 1.0 µM): 63%
residual activity (IKBKE (human); compound 0.1 µM): 97%
residual activity (IKBKE (human); compound 1.0 µM): 98%
residual activity (IRAK4 (human); compound 0.1 µM): 86%
residual activity (IRAK4 (human); compound 1.0 µM): 88%
residual activity (JAK2 JH1 JH2 (human); compound 0.1 µM): 85%
residual activity (JAK2 JH1 JH2 (human); compound 1.0 µM): 77%
residual activity (MAP2K1 (human); compound 0.1 µM): 98%
residual activity (MAP2K1 (human); compound 1.0 µM): 113%
residual activity (MAP3K11 (human); compound 0.1 µM): 79%
residual activity (MAP3K11 (human); compound 1.0 µM): 59%
residual activity (MAPK14 (human); compound 0.1 µM): 98%
residual activity (MAPK14 (human); compound 1.0 µM): 113%
residual activity (MAPK3 (human); compound 0.1 µM): 110%
residual activity (MAPK3 (human); compound 1.0 µM): 109%
residual activity (MAPK8 (human); compound 0.1 µM): 9%
residual activity (MAPK8 (human); compound 1.0 µM): 4%
residual activity (MAPK9 (human); compound 0.1 µM): 81%
residual activity (MAPK9 (human); compound 1.0 µM): 19%
residual activity (MAPKAPK2 (human); compound 0.1 µM): 91%
residual activity (MAPKAPK2 (human); compound 1.0 µM): 106%
residual activity (MARK1 (human); compound 0.1 µM): 91%
residual activity (MARK1 (human); compound 1.0 µM): 80%
residual activity (MARK2 (human); compound 0.1 µM): 94%
residual activity (MARK2 (human); compound 1.0 µM): 85%
residual activity (MARK3 (human); compound 0.1 µM): 101%
residual activity (MARK3 (human); compound 1.0 µM): 76%
residual activity (MKNK1 (human); compound 0.1 µM): 84%
residual activity (MKNK2 (human); compound 0.1 µM): 92%
residual activity (NEK2 (human); compound 0.1 µM): 93%
residual activity (NEK6 (human); compound 0.1 µM): 88%
residual activity (NEK6 (human); compound 1.0 µM): 96%
residual activity (NTRK1 (human); compound 1.0 µM): 82%
residual activity (NUAK1 (human); compound 0.1 µM): 35%
residual activity (NUAK1 (human); compound 1.0 µM): 82%
residual activity (PAK4 (human); compound 0.1 µM): 84%
residual activity (PAK4 (human); compound 1.0 µM): 66%
residual activity (PIM1 (human); compound 0.1 µM): 97%
residual activity (PIM1 (human); compound 1.0 µM): 114%
residual activity ([2]; compound 0.1 µM): 88%
residual activity ([2]; compound 1.0 µM): 112%
residual activity ([3]; compound 0.1 µM): 78%
residual activity ([3]; compound 1.0 µM): 91%
residual activity (STK3 (human); compound 0.1 µM): 83%
residual activity (STK3 (human); compound 1.0 µM): 64%
residual activity (TBK1 (human); compound 0.1 µM): 77%
residual activity (TBK1 (human); compound 1.0 µM): 79%
residual activity (TTK (human); compound 0.1 µM): 83%
residual activity (TTK (human); compound 1.0 µM): 77%
SMILES: CN(C)C/C=C/C(=O)Nc1cccc(C(=O)Nc2ccc(Nc3nccc(-c4cccnc4)n3)cc2)c1
